According to patent EP0647227B1, “PURINONE ANTIANGINAL AGENTS” (Pfizer Limited, priority 1992, dated 1994):

Tested on: calcium/calmodulin (Ca/CAM)-independent cGMP PDE
Assay: Phosphodiesterase activity: in vitro PDE inhibition, modified "batch" method of Thompson and Appleman
Assay type: biochemical, rabbit
Settings: selectivity between Ca/CAM-independent cGMP PDE and cGMP-inhibited cAMP PDE (cAMP IC50 / cGMP IC50)
From the text: The calcium/calmodulin (Ca/CAM)-independent cGMP PDE and the cGMP-inhibited cAMP PDE enzymes are obtained from rabbit platelets whilst, of the four major PDE enzymes of the rat kidney, the Ca/CAM-dependent cGMP PDE (fraction I) is isolated.

SELECTIVITY RATIO	S[…]	SMILES
>1,030	–	CCCn1cnc2c(=O)[nH]c(-c3ccccc3OCC)nc21 [Example 1, 2-(2-Ethoxyphenyl)-9-n-propylpurin-6-one]
6,250	–	CCCn1cnc2c(=O)[nH]c(-c3cc(S(=O)(=O)N4CCNCC4)ccc3OCC)nc21 [Example 2, 2-[2-Ethoxy-5-(1-piperazinylsulphonyl)phenyl]-9-n-propylpurin-6-one]
–	12,500	CCCn1cnc2c(=O)[nH]c(-c3cc(S(=O)(=O)N4CCN(C)CC4)ccc3OCC)nc21 [Example 3, 2-[2-Ethoxy-5-(4-methyl-1-piperazinylsulphonyl)phenyl]-9-n-propylpurin-6-one]
